This note sets out measurements from the supplement of paper PMC7695840.

The test system of experiment [1] is Staphylococcus aureus MW2 (mecA+). Briefly: IC50 (growth, competition assay). The note with it: cefoxitin: subinhibitory. In outline:
(§1)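 Two fluorescent S. aureus MW2 strains, one carrying and one lacking the resistance gene, were pre-induced, mixed 1:1 and grown unshaken in LB in 1536-well plates for 20 h at 37 °C and 90% humidity with a subinhibitory drug dose set each day. Compounds were tested on five- or nine-point 2-fold gradients in two dye-swapped replicates. DsRed (540/590) and GFP (485/520) signals were scaled per plate between the medians of single-strain controls, and No Treatment was then set to 0.5. For each strain, IC50 was taken as the dose that halved the No Treatment signal, or else the maximal signal.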

The test system of experiment [2] is Staphylococcus aureus MW2 delta-mecA (mecA-). Briefly: IC50 (growth, competition assay). The note with it: cefoxitin: subinhibitory. In outline: as §1

Values joined by “and” are separate entries in the source; they are usually repeats but may differ in a detail not shown here. Equal entries are not always repeated. Structures can show the parent of a compound that is named as a salt. Some results are limits rather than exact numbers.

Broadly, the IC50 is the concentration that gives 50% inhibition. A higher IC50 goes with weaker potency. Take `CCN1CCN(c2cc3c(cc2F)c(=O)c(C(=O)O)cn3C2CC2)CC1` [Enrofloxacin]: the IC50 in experiment [1] (fluorescent label: DsRed), in experiment [1] (fluorescent label: GFP), in experiment [2] (fluorescent label: DsRed) and in experiment [2] (fluorescent label: GFP) was < 9.85 µM each time.

Regarding `O=c1[nH]c(=O)n([C@H]2C[C@H](O)[C@@H](CO)O2)cc1F` [FLOXURIDINE], the IC50 in experiment [1] (fluorescent label: DsRed), in experiment [1] (fluorescent label: GFP), in experiment [2] (fluorescent label: DsRed) and in experiment [2] (fluorescent label: GFP) was < 9.85 µM throughout.

Turning to `COC(=O)/C(C)=C\C[C@@]12OC(C)(C)[C@@H]3C[C@@H](C=C4C(=O)c5c(O)c6c(c(CC=C(C)C)c5O[C@]431)O[C@](C)(CCC=C(C)C)C=C6)C2=O` [METHYL GAMBOGATE], the IC50 worked out at 56.8 µM in experiment [1] (fluorescent label: DsRed), 66.4 µM in experiment [1] (fluorescent label: GFP), 12.8 µM in experiment [2] (fluorescent label: DsRed) and 22.9 µM in experiment [2] (fluorescent label: GFP).

With `CC(C)(C)c1cc(C=C(C#N)C#N)cc(C(C)(C)C)c1O` [Tyrphostin A9], the IC50 is < 9.85 µM in experiment [1] (fluorescent label: DsRed), 26 µM in experiment [1] (fluorescent label: GFP), 35.4 µM in experiment [2] (fluorescent label: DsRed) and < 9.85 µM in experiment [2] (fluorescent label: GFP).

In the case of `CCCCCCCCCCCCCCCCOP(=O)([O-])OCC[N+](C)(C)C` [MILTEX], the IC50 in experiment [1] (fluorescent label: DsRed) was found to be 35.2 µM; in experiment [1] (fluorescent label: GFP), 33.7 µM; in experiment [2] (fluorescent label: DsRed), 31.1 µM; in experiment [2] (fluorescent label: GFP), 28.1 µM.

For the compound `O=C1NC(=O)/C(=C/c2ccc(-c3ccc(F)cc3O)o2)S1`, the IC50 in experiment [1] (fluorescent label: DsRed) was < 9.85 µM; in experiment [1] (fluorescent label: GFP), < 9.85 µM and 13.8 µM; in experiment [2] (fluorescent label: DsRed) it was < 9.85 µM; in experiment [2] (fluorescent label: GFP) it was < 9.85 µM.

On to `C=C[C@](C)(O)CC[C@@H]1[C@@]2(C)CCCC(C)(C)[C@@H]2CC[C@@]1(C)O` [Sclareol], for which the IC50 turned out to be 99.3 µM in experiment [1] (fluorescent label: DsRed), 65.2 µM in experiment [1] (fluorescent label: GFP), 25 µM in experiment [2] (fluorescent label: DsRed) and 19.7 µM in experiment [2] (fluorescent label: GFP).

Consider `CC(=O)NC1CCSC1=O` (stereo not drawn) [CITIOLASE], for which the IC50 in experiment [1] (fluorescent label: DsRed) is 56.8 µM; in experiment [1] (fluorescent label: GFP), 10.2 µM; in experiment [2] (fluorescent label: DsRed), 12.4 µM; in experiment [2] (fluorescent label: GFP), 38.9 µM.

As to `O=C(O[C@H]1CN2CCC1CC2)N1CCc2ccccc2[C@@H]1c1ccccc1` [VESICARE], the IC50 amounted to 47.9 µM in experiment [1] (fluorescent label: DsRed), 68.2 µM in experiment [1] (fluorescent label: GFP), 31.8 µM in experiment [2] (fluorescent label: DsRed) and 19.9 µM in experiment [2] (fluorescent label: GFP).

Take `CNc1nc(-c2ccc3c(N)n[nH]c3c2)cc(N2C[C@@H](C(=O)NC3CCCCC3)CC[C@H]2C)n1`: the IC50 in experiment [1] (fluorescent label: DsRed) came out at 111 µM; in experiment [1] (fluorescent label: GFP), 111 µM; in experiment [2] (fluorescent label: DsRed), 51.4 µM; in experiment [2] (fluorescent label: GFP), 26.4 µM.

`N[C@@H](Cc1cc(I)c(Oc2cc(I)c(O)c(I)c2)c(I)c1)C(=O)O` [L-Thyroxine]: the IC50 in experiment [1] (fluorescent label: DsRed), in experiment [1] (fluorescent label: GFP), in experiment [2] (fluorescent label: DsRed) and in experiment [2] (fluorescent label: GFP) was < 9.85 µM throughout.

In the case of `CCn1cc(C(=O)O)c(=O)c2cc(F)c(N3CCN(C)CC3)cc21` [Pefloxacin Mesylate Dihydrate], the IC50 in experiment [1] (fluorescent label: DsRed), in experiment [1] (fluorescent label: GFP), in experiment [2] (fluorescent label: DsRed) and in experiment [2] (fluorescent label: GFP) was < 9.85 µM in each case.

With `CCn1cc(C(=O)O)c(=O)c2ccc(C)nc21` [Nalidixic acid sodium], the IC50 in experiment [1] (fluorescent label: DsRed) is 34 µM; in experiment [1] (fluorescent label: GFP), 29.8 µM; in experiment [2] (fluorescent label: DsRed), 17.2 µM; in experiment [2] (fluorescent label: GFP) it was 16.2 µM.

Take `NCCOB(c1ccccc1)c1ccccc1` [AMINOETHOXYDIPHENYLBORANE]: the IC50 in experiment [1] (fluorescent label: DsRed) is 25.6 µM; in experiment [1] (fluorescent label: GFP) it was 25.1 µM; in experiment [2] (fluorescent label: DsRed), 11.1 µM; in experiment [2] (fluorescent label: GFP), 11.7 µM.

Regarding `COc1ccc(NC(=O)c2ccc(-c3ccc(-c4noc(C)n4)cc3C)cc2)cc1N1CCN(C)CC1`, the IC50 was 30.1 µM in experiment [1] (fluorescent label: DsRed), 44.9 µM in experiment [1] (fluorescent label: GFP), < 9.85 µM in experiment [2] (fluorescent label: DsRed) and 12.2 µM in experiment [2] (fluorescent label: GFP).

Turning to `CN1CCN(c2c(F)cc3c(=O)c(C(=O)O)cn4c3c2OCN4C)CC1` [Marbofloxacin], the IC50 worked out at 6.41 µM in experiment [1] (fluorescent label: DsRed), 6.33 µM in experiment [1] (fluorescent label: GFP), 2.09 µM in experiment [2] (fluorescent label: DsRed) and 1.19 µM in experiment [2] (fluorescent label: GFP).

`CC[C@H]1OC(=O)[C@H](C)[C@@H](O[C@H]2C[C@@](C)(OC)[C@@H](O)[C@H](C)O2)[C@H](C)[C@@H](O[C@@H]2O[C@H](C)C[C@H](N(C)C)[C@H]2O)[C@](C)(O)C[C@@H](C)C(=O)[C@H](C)[C@@H](O)[C@]1(C)O` [ERYDERM]: the IC50 in experiment [1] (fluorescent label: DsRed), in experiment [1] (fluorescent label: GFP), in experiment [2] (fluorescent label: DsRed) and in experiment [2] (fluorescent label: GFP) was < 9.85 µM in each case.

Regarding `Cc1cc(C2CCCCC2)n(O)c(=O)c1` [Ciclopirox (Penlac)], the IC50 stood at 19 µM in experiment [1] (fluorescent label: DsRed), 30.1 µM in experiment [1] (fluorescent label: GFP), 29.7 µM in experiment [2] (fluorescent label: DsRed) and 29.5 µM in experiment [2] (fluorescent label: GFP).

Consider `Cc1ccc(C(=O)Nc2ccc(CN3CCN(C)CC3)c(C(F)(F)F)c2)cc1C#Cc1cnc2cccnn12`, for which the IC50 in experiment [1] (fluorescent label: DsRed) turned out to be 21.8 µM; in experiment [1] (fluorescent label: GFP), 27.4 µM; in experiment [2] (fluorescent label: DsRed) it was 8.28 µM; in experiment [2] (fluorescent label: GFP) it was 4.54 µM.

On to `CC[C@H]1OC(=O)C[C@@H](O)[C@H](C)[C@@H](O[C@@H]2O[C@H](C)[C@@H](O[C@H]3C[C@@](C)(O)[C@@H](O)[C@H](C)O3)[C@H](N(C)C)[C@H]2O)[C@@H](CC=O)C[C@@H](C)C(=O)/C=C/C(C)=C/[C@@H]1CO[C@@H]1O[C@H](C)[C@@H](O)[C@@H](OC)[C@H]1OC` [TYLAN], for which the IC50 in experiment [1] (fluorescent label: DsRed), in experiment [1] (fluorescent label: GFP), in experiment [2] (fluorescent label: DsRed) and in experiment [2] (fluorescent label: GFP) was < 9.85 µM in each case.

For `Cn1nnnc1SCC1=C(C(=O)O)N2C(=O)[C@@H](NC(=O)[C@H](O)c3ccccc3)[C@H]2SC1` [CEFAMANDOLE SODIUM], the half-inhibitory concentration (IC50) in experiment [1] (fluorescent label: DsRed) is 53.2 µM; in experiment [1] (fluorescent label: GFP), 52.5 µM; in experiment [2] (fluorescent label: DsRed), < 9.85 µM; in experiment [2] (fluorescent label: GFP), < 9.85 µM.

Consider `Cc1cc(N)c2ccccc2[n+]1CCCCCCCCCC[n+]1c(C)cc(N)c2ccccc21` [FLUOMIZIN], for which the IC50 in experiment [1] (fluorescent label: DsRed) was 13.2 µM; in experiment [1] (fluorescent label: GFP) it was 12.2 µM; in experiment [2] (fluorescent label: DsRed), < 9.85 µM; in experiment [2] (fluorescent label: GFP), < 9.85 µM.

On to `COc1ccc(Cc2cnc(N)nc2N)cc1OC` [DIAVERIDINE], for which the IC50 in experiment [1] (fluorescent label: DsRed) was 57.3 µM; in experiment [1] (fluorescent label: GFP), 29.9 µM; in experiment [2] (fluorescent label: DsRed) it was 27.4 µM; in experiment [2] (fluorescent label: GFP) it was 26.7 µM.

On to `N[C@@H]1CCCN(c2c(/C=C3\SC(=O)NC3=O)cccc2-c2ccccc2)C1` [AZD1208], for which the IC50 turned out to be 111 µM in experiment [1] (fluorescent label: DsRed), 101 µM in experiment [1] (fluorescent label: GFP), 26.7 µM in experiment [2] (fluorescent label: DsRed) and 22.8 µM in experiment [2] (fluorescent label: GFP).

On to `CC(C)(C)CC(C)(C)c1ccc(OCCOCC[N+](C)(C)Cc2ccccc2)cc1` [PHEMERIDE], for which the concentration for half-maximal inhibition (IC50) in experiment [1] (fluorescent label: DsRed), in experiment [1] (fluorescent label: GFP), in experiment [2] (fluorescent label: DsRed) and in experiment [2] (fluorescent label: GFP) was < 9.85 µM throughout.

As for `O=C1OC(c2ccc(O)cc2)(c2ccc(O)cc2)c2ccccc21` [EXLAX], the IC50 in experiment [1] (fluorescent label: DsRed) was 112 µM; in experiment [1] (fluorescent label: GFP) it was 52.1 µM; in experiment [2] (fluorescent label: DsRed), 49.7 µM; in experiment [2] (fluorescent label: GFP), 59 µM.

In the case of `COc1ccnc2[nH]cc(C(=O)C(=O)N3CCN(C(=O)c4ccccc4)C[C@H]3C)c12`, the IC50 in experiment [1] (fluorescent label: DsRed), in experiment [1] (fluorescent label: GFP), in experiment [2] (fluorescent label: DsRed) and in experiment [2] (fluorescent label: GFP) was > 150 µM throughout.
